Patent publication US8815249B2 (priority 1999, dated 2014)
Entries after “also recorded” stand apart in the source; their conditions may differ. Where two headings read alike, the source gives them in different places. Non-standard residues stand in square brackets, D forms with d. Ava = NCCCCC(=O)O

What was measured:
[1] = tested on: total splenic cells from DR4-IE Tg mice; assay: IFN-γ ELISPOT recall response, total splenic cells, Ii-Key/gp100 hybrids; type: in vivo; settings: specificity control
From the text: Immunizations. DR4-IE Tg mice were immunized subcutaneously at the base of the tail with 40 nmole or 60 nmole of Ii-Key/gp100 MHC class II hybrid or epitope-only peptides, dissolved in saline and emulsified with an equal volume of either IFA or CFA. The synthetic phosphorothioate-modified CpG ODN 1826, 5′ TCC […] CTG ACGTT 3′ (SEQ ID NO.: 906) immunostimulatory nucleotide (CpG motif underlined) was purchased from Oligos Etc. (Wilsonville, Oreg.). DR4-IE Tg mice were vaccinated s.c. with 60 nmole of designated immunogen in an emulsion with IFA and 60 μg CpG. […]
ELISPOT assays. […] Digitalized images of spots were analyzed with a Series 1 Immunospot Analyzer and Immunospot 1.7e software (Cellular Technology Limited, Cleveland, Ohio). Criteria for spot size, circularity and color density were determined by comparing control and experimental wells. […] Only areas meeting the specified criteria were counted as spots. Mean and standard deviations were calculated for all assays. […]
Structure-activity rules identified in study. The stimulation of splenic mononuclear lymphocytes from HLA-DR4-IE Tg mice immunized with, respectively, with each of the peptides of Table 1.2 with complete Freund's adjuvant (CFA), was determined in an ELISPOT assay for IFN-γ, IL-4 and IL-2. […]

MHC Class II molecules = settings: cited from earlier work
[2] = tested on: HLA alleles of the A2 supertype (A2.2, A2.3, A2.6 and A6802); settings: cited from earlier work
[3] = tested on: tumor cells expressing CEA; settings: cited from earlier work
splenic T cells [4] = type: in vivo; settings: C3H/HeJ mice, spleen cells day 35 re-stimulated with HIV gp160(843-855) peptide, triplicate wells
Protocol: An ELISPOT assay for IFN-γ cytokine responses was performed in order to titer more exactly splenic T lymphocyte subset responses to immunization with Ii-Key-ava-gp160(843-855) or gp160(843-855). The assay was performed as follows. A solution of the cytokine-specific capture antibody (100 μl at 6 μg/ml in phosphate-buffered saline solution, pH 7.2) was added to each well of a 96-well Immunospot plate (M200) for an overnight incubation at 4° C. After aspiration, phosphate-buffer saline solution 200 μl containing 10% fetal bovine serum and 1% penicillin-streptomycin-glutamine (mouse medium) was added to each well for 2 hr at RT. After washing four times with 1% Tween-20 in phosphate-buffered saline solution (wash buffer I), 100 μl of single cell suspensions from the spleens of immunized mice at 10^6 cells/well were re-stimulated with 100 μl of peptide-epitope at 5 μg/well in mouse medium and incubated for 20-40 hr at 37° C., 5% CO2. After washing twice with phosphate-buffered saline solution (wash buffer II) and four times with wash buffer I, 100 μl of 2 ÿg/ml biotinylated anti-mouse IFN-γ in 1× phosphate buffer saline with 10% fetal bovine serum (dilution buffer) was added to each well for 2 hr at RT. After washing five times with wash buffer I, 100 il of streptavidin-horse radish peroxidase conjugate (1:500) in dilution buffer was added to each well for 1 hr at RT. After washing four times with wash buffer I and two times with wash buffer II, 100 μl of the 3-amino-9-ethylcarbazole/H2O2 substrate (Pharmingen 551951) was added and incubated for 30-60 min in the dark at RT. The reaction was stopped by washing three times with 200 μl of deionized water. ELISPOT data analysis was performed by using the Immunospot 1.7e software ([…]). […] Additional counting parameters for spot size and circularity were applied to gate out speckles caused by non-specific antibody binding. Each spot represents a single cell secreting IFN-γ.
C3H/HeJ(H-2^k) mice were immunized with 40 nmole of peptides (50 μl) emulsified with equal volume of incomplete Freund's adjuvant (IFA), subcutaneously at the base of the tail. On day 13 the mice were boosted subcutaneously at the base of the tail with 40 nmole of peptides (50 μl) emulsified with equal amount of incomplete Freund's adjuvant (IFA). On day 31, the mice were boosted intravenously with 40 nmole peptides dissolved in 100 μl Hank's balanced salts solution (HBSS). On day 35, the mice were sacrificed and single cell suspensions from spleens were assayed for IFN-γ responses to HIV gp160(843-855) peptide.
Number is the mean number of spots (and standard deviation) in triplicate wells and Size is the mean spot size in mm^2 (and standard deviation). Ii-Key/gp160(844-855) has one ava spacer (Ii-key-ava-gp160(844-855)).

[5] = tested on: PGCC(95-104) epitope peptide; design: species or system C3H/HeJ mice; settings: mouse, in vivo
[6] = tested on: purified splenic CD4+ Th cells; design: species or system DR4-IE Tg mice; settings: mouse, in vivo, sc
[7] = tested on: HIV gp160(843-855) peptide; type: in vivo; settings: B10.A (5R) mice, peptides in saline solution, serum day 35
Protocol: An ELISA assay for antibody responses following immunization with the experimental peptides indicated above was performed as follows. Fifty microliters (μl) of a solution of the coating peptide at 2 μg/well in 0.1 M carbonate buffer, pH 9.5 was added to each well of a 96-well Nunc-immunoplate (#442404) for an overnight incubation at 4° C. After aspiration, 250 μl of phosphate-buffer saline solution containing 3% fetal bovine serum (assay diluent) was added to each well for 2 hr at RT. After washing three times with assay diluent, 50 μl of 20-times diluted mouse serum in 1:3 serial dilution in assay diluent was added to each well for 2 hr at RT. After washing three times with assay diluent, 50 μl of 1 ÿg/ml biotinylated goat anti-mouse IgG1 or IgG2a was added to each well and incubated for 1 hr at RT. After washing three times with assay diluent, 50 μl of streptavidin-horse radish peroxidase conjugate (1:1000) was added to each well and incubated for 30 min at RT. After washing three times with assay diluent, 100 μl of tetramethylbenzidine/H2O2 solution (Pharmingen 264KK) was added to each well for 15 min in the dark at room temperature. The reaction was stopped with 100 μl 1N H2SO4 in each well and the absorbance was read immediately at 450 nm.
B10.A (5R) mice (H-2^k/b) were immunized with 20 nmole of peptides in 50 μl phosphate-buffered saline solution, intramuscularly in right and left rear legs on days 1 and 2, respectively. On day 14 the mice were boosted intramuscularly with 40 nmole of peptides in 200 μl Hank's balanced salts solution intramuscularly in a rear leg. On day 30 the mice were boosted intravenously with 40 nmole peptides dissolved in Hank's balanced salts solution (HBSS). On day 35 the mice were sacrificed and serum samples were assayed for antibody titers against the HIV gp160(843-855) peptide.

splenic T cells [8] = tested on: splenic T cells; design: species or system B10(A) 5R mice; settings: mouse, in vivo

GVGSPYVSRLLGICL [HER-2/neu (776-790) epitope]
spots on in vitro stimulation with non-specific DR4 restricted epitope ([1]; immunization in CFA): Less than 10 spots/well | spots on stimulation with non-specific HLA-DR4-restricted epitope ([1]; b664 CFA, b669 CpG in IFA): non-significant immune response; also recorded: three to six spots

LRMKLPKPPKPVSQMR [Ii(77-92)]
activity of Ii-Key peptides in presentation of antigenic peptides (MHC Class II molecules): enhanced presentation of antigenic peptides

LMTFWNPPV [9.5.2]
binding to HLA alleles of the A2 supertype [2]: bound tightly | CTL induction [3]: induced vigorous anti-tumor CTL responses

LRMKLPK (printed: Leu-Arg-Met-Lys-Leu-Pro-Lys)
activity of Ii-Key peptides in presentation of antigenic peptides (MHC Class II molecules): significantly greater activity

Ac-LRMK-ava-YRAIRHIPR-NH2 (Ac-LRMK[Ava]YRAIRHIPR-NH2; SMILES CC[C@H](C)[C@H](NC(=O)[C@H](C)NC(=O)[C@H](CCCNC(=N)N)NC(=O)[C@H](Cc1ccc(O)cc1)NC(=O)CCCCNC(=O)[C@H](CCCCN)NC(=O)[C@H](CCSC)NC(=O)[C@H](CCCNC(=N)N)NC(=O)[C@H](CC(C)C)NC(C)=O)C(=O)N[C@@H](CCCNC(=N)N)C(=O)N[C@@H](Cc1c[nH]cn1)C(=O)N[C@H](C(=O)N1CCC[C@H]1C(=O)N[C@@H](CCCNC(=N)N)C(N)=O)[C@@H](C)CC) [Ii-Key/one-ava/gp160(844-855)]
Number (mean number of IFN-γ ELISPOT spots and standard deviation) (splenic T cells [4]): 59 (+/−5) | Size (mean spot size and standard deviation) (splenic T cells [4]): 0.028 (+/−0.006) mm^2

LRMK
activity of Ii-Key peptides in presentation of antigenic peptides (MHC Class II molecules): half-maximal activity

QYSWFVNGTF [9.5.4]
CTL induction [3]: elicited CTL lines that lysed tumor cells

HLFYSWYK [9.5.6]
CTL induction [3]: elicited CTL lines that lysed tumor cells

Ac-LRMK-ava-IAYLKQATAK-NH2 (Ac-LRMK[Ava]IAYLKQATAK-NH2; SMILES CC[C@H](C)[C@H](NC(=O)CCCCNC(=O)[C@H](CCCCN)NC(=O)[C@H](CCSC)NC(=O)[C@H](CCCNC(=N)N)NC(=O)[C@H](CC(C)C)NC(C)=O)C(=O)N[C@@H](C)C(=O)N[C@@H](Cc1ccc(O)cc1)C(=O)N[C@@H](CC(C)C)C(=O)N[C@@H](CCCCN)C(=O)N[C@@H](CCC(N)=O)C(=O)N[C@@H](C)C(=O)N[C@H](C(=O)N[C@@H](C)C(=O)N[C@@H](CCCCN)C(N)=O)[C@@H](C)O) [Ii-Key/PGCC]
antibody titers against PGCC epitope [5]: Significantly greater antibody titers

RQLYPEWTEAQRL [Peptide A]
IFN-γ spots [6]: 491 spots

Ac-LRMK-AYRAIRHIPR-NH2 (Ac-LRMKAYRAIRHIPR-NH2) [gp160(843-855)]
Number (mean number of IFN-γ ELISPOT spots and standard deviation) (splenic T cells [4]): 5 (+/−3.6) | Size (mean spot size and standard deviation) (splenic T cells [4]): 0.019 (+/−0.01) mm^2 | Antibody induction, ELISA against HIV gp160(843-855) peptide ([7]; Dilution^−1 20): 0.052 | Antibody induction, ELISA against HIV gp160(843-855) peptide ([7]; Dilution^−1 60): 0.023 | Antibody induction, ELISA against HIV gp160(843-855) peptide ([7]; Dilution^−1 180): 0.000 | Antibody induction, ELISA against HIV gp160(843-855) peptide ([7]; Dilution^−1 540): −0.005 | Percentage of cells CD3^+/IFN-γ^+ (splenic T cells [8]): 2.05% | Percentage of cells CD4^+ (splenic T cells [8]): 31.03% | Percentage of cells CD4^+/IFN-γ^+ (splenic T cells [8]): 0.94%
